# Results from patent US9044397B2, “Medical devices with galvanic particulates” (Ethicon, Inc., priority 2009, dated 2015).
# Tests used:
# Assay type in all cases: cell-based
# C. albicans [1] = test: Zone of inhibition on TSA agar versus copper acetate and zinc acetate; settings: about 6 log CFU, 37° C. 24 hr
# Method: (§1) Zone of inhibition testing was performed on agar discs containing copper-zinc galvanic particulates from Example 1(a) at 0.5%, Zn acetate at 0.5%, and Cu acetate at 0.1%. The discs were placed on TSA agar surface, inoculated with about 6 log CFU of MRSA or C. albicans, and incubated at 37° C. for 24 hr.
# MRSA [2] = test: as above; settings: about 6 log CFU, 37° C. 24 hr
# Method: as §1
# C. albicans [3] = test: Sustained efficacy, zone of inhibition day 1 and re-plated day 2; settings: 1% in agar disc
# Method: (§2) Agars discs containing either galvanic particulates as described in Example 1(a) or zinc acetate at 1% were placed on TSA agar surface inoculated with about 6 log CFU of MRSA or C. albicans and incubated at 37° C. for 24 hr (day-1).
# MRSA [4] = test: as above; settings: 1% in agar disc
# Method: as §2
# [5] = same disc moved to newly inoculated plate, day-2
Compound,"zone of inhibition, C. albicans (C. albicans [1]; 0.5% in agar disc)","zone of inhibition, MRSA (MRSA [2]; 0.5% in agar disc)","zone of inhibition, C. albicans, day 1 (C. albicans [3]; day-1, 24 hr at 37° C.)","zone of inhibition, C. albicans, day 2 (C. albicans [3]; [5])","zone of inhibition, MRSA, day 1 (MRSA [4]; day-1, 24 hr at 37° C.)","zone of inhibition, MRSA, day 2 (MRSA [4]; [5])","zone of inhibition, C. albicans (C. albicans [1]; 0.1% in agar disc)","zone of inhibition, MRSA (MRSA [2]; 0.1% in agar disc)"
"CC(=O)[O-].CC(=O)[O-].[Zn+2] [Zinc Acetate, zinc acetate]","smaller zone of inhibition, approximately one half the radius","smaller zone of inhibition, approximately one half the radius",produce a zone of inhibition,did not show any inhibition,produce a zone of inhibition,did not show any inhibition,,
copper acetate,,,,,,,did not show any visible zone of inhibition,did not show any visible zone of inhibition
